A word on the IC50: it is the concentration that gives 50% inhibition.

Consider 18 compounds from ChEMBL document CHEMBL4765375, “Synthesis, antiproliferative activity and SAR analysis of (-)-cleistenolide and analogues” (Eur J Med Chem, 2020).

Assay [1] deals with MDA-MB-231. As to the kind of experiment: Potency index, ratio of doxorubicin IC50 to compound IC50 for human MDA-MB-231 cells. Format: functional.
Assay [2] has as its system Raji. As to the kind of experiment: Antiproliferative activity against human Raji cells assessed as reduction in cell viability measured after 6 days by MTT assay. Format: functional, cell-based. The note with it: 144 h.
Assay [3] deals with MCF7. The assay is described as follows: Antiproliferative activity against human MCF7 cells assessed as reduction in cell viability measured after 6 days by MTT assay. In kind it is functional, cell-based. The note with it: MCF7, 144 h.
Assay [4] relates to Jurkat. The assay is described as follows: Antiproliferative activity against human Jurkat cells assessed as reduction in cell viability measured after 6 days by MTT assay. In kind it is functional, cell-based. The conditions noted are these: 144 h.
Assay [5] has as its system A549. As to the kind of experiment: Antiproliferative activity against human A549 cells assessed as reduction in cell viability measured after 6 days by MTT assay. Format: functional, cell-based. The note with it: A549, 144 h. On the technique in general: Formazan colour is commonly taken as a measure of viable cells.
Assay [6] concerns MRC5. As to the kind of experiment: Cytotoxicity against human MRC5 cells assessed as reduction in cell viability measured after 6 days by MTT assay. In kind it is cell-based. The note with it: MRC5, 144 h.
Assay [7] has as its system MDA-MB-231. As to the kind of experiment: Antiproliferative activity against human MDA-MB-231 cells assessed as reduction in cell viability measured after 6 days by MTT assay. In kind it is functional, cell-based. The conditions noted are these: MDA-MB-231, 144 h.
Assay [8] has as its system K562. The assay is described as follows: Antiproliferative activity against human K562 cells assessed as reduction in cell viability measured after 6 days by MTT assay. The note with it: K562, 144 h. Format: functional, cell-based.
The test system of assay [9] is HL-60. The assay is described as follows: Antiproliferative activity against human HL-60 cells assessed as reduction in cell viability measured after 6 days by MTT assay. In kind it is functional, cell-based. The note with it: HL-60, 144 h.
In assay [10] the test system is HeLa. As to the kind of experiment: Antiproliferative activity against human HeLa cells assessed as reduction in cell viability measured after 6 days by MTT assay. Format: functional, cell-based. The conditions noted are these: 144 h.
The subject of assay [11] is A549. The assay is described as follows: Potency index, ratio of doxorubicin IC50 to compound IC50 for human A549 cells. In kind it is functional.
The test system of assay [12] is Raji. The assay is described as follows: Potency index, ratio of doxorubicin IC50 to compound IC50 for human Raji cells. In kind it is functional.

With `CC(=O)O[C@@H]1C=CC(=O)O[C@@H]1[C@@H](COC(=O)c1c(Cl)cc(Cl)cc1Cl)OC(C)=O`, the “Ratio IC50” value in assay [1] stood at 5.

For `O=C1C=C[C@@H](OCc2ccccc2)[C@@H]([C@@H](COC(=O)/C=C/c2ccc([N+](=O)[O-])cc2)OCc2ccccc2)O1`, the IC50 in assay [2] is 0.14 µM; in [3], 1.66 µM; in assay [4], 5.71 µM; in assay [5], 5.24 µM; in [6], more than 100 µM; in assay [7] it was 1.55 µM. For the same compound, the IC50 in assay [8] is 1.27 µM; in assay [9] it was 2.53 µM; in [10] it was 2.65 µM.

Consider `CC(=O)O[C@@H]1C=CC(=O)O[C@@H]1[C@@H](COC(=O)c1ccc(Cl)cc1)OC(C)=O`, for which the IC50 in assay [2] was 1.85 µM; in assay [3], 2.64 µM; in [4] it was 24.4 µM; in [5], 15.7 µM; in assay [6], more than 100 µM; in assay [7], 1.85 µM. Also, the IC50 in [8] stood at 3.69 µM; in assay [9], 32.6 µM; in [10] it was 11 µM.

Regarding `CO[C@H]1CC(=O)O[C@H]([C@@H](COC(=O)/C=C/c2ccc([N+](=O)[O-])cc2)OC(C)=O)[C@@H]1OC(C)=O`, the half-inhibitory concentration (IC50) in [2] is 5.64 µM; in [3], 5.12 µM; in assay [4], 0.12 µM; in [5], 0.18 µM; in assay [6], more than 100 µM; in assay [7], 28.6 µM. Moreover, the IC50 in [8] came to 2.38 µM; in [9] it was 3.11 µM; in [10], 0.67 µM. For the same compound, the “Ratio IC50” value in assay [11] is 27.

For the compound `CC(=O)O[C@@H]1C=CC(=O)O[C@@H]1[C@@H](COC(=O)/C=C/c1ccc([N+](=O)[O-])cc1)OC(C)=O`, the IC50 in assay [2] is 2.75 µM; in assay [3] it was 1.4 µM; in [4], 0.58 µM; in [5] it was 2.26 µM; in assay [6], more than 100 µM; in [7], 6.93 µM. In addition, the IC50 is 2.34 µM in assay [8], 4.03 µM in assay [9] and 1.84 µM in [10].

On to `CC(=O)OC[C@@H](OC(C)=O)[C@H]1OC(=O)C=C[C@H]1OC(C)=O`, for which the IC50 in [2] is 10.1 µM; in assay [3], 3.87 µM; in assay [4] it was 24.6 µM; in [5] it was 12.6 µM; in assay [6], more than 100 µM; in assay [7], 7.48 µM. Besides, the IC50 in assay [8] was 7.54 µM; in assay [9] it was 29.7 µM; in [10], 2.64 µM.

On to `O=C1CC2OCC(OCc3ccccc3)C(O1)C2OCc1ccccc1` (stereo unspecified), for which the IC50 in assay [2] was 0.6 µM; in [3], 0.21 µM; in assay [4], 1.08 µM; in assay [5], 6.24 µM; in [6], more than 100 µM; in [7] it was 0.16 µM. The IC50 in assay [8] was 8.1 µM; in assay [9], 3.48 µM; in assay [10], 8.22 µM.

As to `O=C1C=C[C@@H](OCc2ccccc2)[C@@H]([C@@H](COC(=O)/C=C/c2ccc(F)cc2)OCc2ccccc2)O1`, the IC50 in [2] is 2.47 µM; in assay [3], 3.01 µM; in [4], 4.16 µM; in assay [5], 12.1 µM; in [6] it was more than 100 µM; in assay [7] it was 3.58 µM. The IC50 was 1.01 µM in [8], 5.4 µM in [9] and 7.31 µM in [10].

With `O=C1C=C[C@@H](OC(=O)c2ccccc2)[C@@H]([C@@H](COC(=O)c2ccccc2)OC(=O)c2ccccc2)O1`, the IC50 in assay [2] is 1.08 µM; in assay [3], 2.36 µM; in assay [4] it was 47.2 µM; in assay [5], 21.5 µM; in assay [6], more than 100 µM; in [7], 52.3 µM. Moreover, the IC50 in [8] was 3.25 µM; in [9], 8.25 µM; in [10], 15.5 µM.

`COc1ccc(/C=C/C(=O)OC[C@@H](OCc2ccccc2)[C@H]2OC(=O)C=C[C@H]2OCc2ccccc2)cc1`: the IC50 in assay [2] was 0.69 µM; in assay [3], 1.11 µM; in [4], 10.3 µM; in [5], 4.25 µM; in assay [6] it was more than 100 µM; in assay [7], 3.26 µM. The IC50 in assay [8] was found to be 0.43 µM; in [9], 1.57 µM; in assay [10] it was 1.08 µM.

Consider `COc1cccc(C(=O)OC[C@@H](OC(=O)c2cccc(OC)c2)[C@H]2OC(=O)C=C[C@H]2OC(=O)c2cccc(OC)c2)c1`, for which the IC50 is 2.69 µM in [2]; 30.2 µM in assay [3]; 21.2 µM in [4]; 18.2 µM in [5]; more than 100 µM in [6]; 1.58 µM in assay [7]. The IC50 in assay [8] worked out at 4.65 µM; in assay [9], 6.21 µM; in [10] it was 7.64 µM.

As to `O=C1C=C[C@@H](OCc2ccccc2)[C@@H]([C@@H](CO)OCc2ccccc2)O1`, the IC50 in [2] is 0.01 µM; in assay [3] it was 17.6 µM; in assay [4], 12.3 µM; in [5] it was 12.9 µM; in assay [6], more than 100 µM; in [7] it was 4.79 µM. The values for the IC50 in assay [8], in [9] and in assay [10] were 1.42 µM, 10.2 µM and 4.8 µM, respectively. The “Ratio IC50” value in assay [12] worked out at 298.

With `CC(=O)O[C@@H]1C=CC(=O)O[C@@H]1[C@@H](COC(=O)/C=C/c1ccc(F)cc1)OC(C)=O`, the IC50 in [2] was 2.31 µM; in [3], 4.26 µM; in [4], 5.32 µM; in assay [5] it was 2.12 µM; in assay [6], more than 100 µM; in [7], 34.4 µM. Further, the 50% inhibitory concentration (IC50) in [8] was 3.46 µM; in assay [9], 1.89 µM; in assay [10], 1.68 µM.

For `COc1ccc(/C=C/C(=O)OC[C@@H](OC(C)=O)[C@H]2OC(=O)C=C[C@H]2OC(C)=O)cc1`, the IC50 was determined as 10 µM in assay [2]; 9.31 µM in assay [3]; 2.59 µM in assay [4]; 1.4 µM in assay [5]; 78 µM in assay [6]; 22.8 µM in assay [7]. Further, the IC50 in assay [8] worked out at 6.96 µM; in [9], 10 µM; in [10], 5.93 µM.

`O=C1C=C[C@@H](OCc2ccccc2)[C@@H]([C@@H](COC(=O)/C=C/c2ccccc2)OCc2ccccc2)O1`: the IC50 in assay [2] is 1.33 µM; in [3] it was 2.57 µM; in assay [4], 4.96 µM; in assay [5], 13.2 µM; in [6], more than 100 µM; in assay [7], 4.97 µM. Further, the IC50 in [8] came to 1.59 µM; in assay [9] it was 0.61 µM; in assay [10], 9.51 µM.

Turning to `CC(=O)OC[C@@H](OCc1ccccc1)[C@H]1OC(=O)C=C[C@H]1OCc1ccccc1`, the IC50 is 1.82 µM in [2]; 18.9 µM in assay [3]; 14.7 µM in [4]; 15 µM in [5]; more than 100 µM in assay [6]; 6.42 µM in assay [7]. Moreover, the figures for the IC50 in assay [8], in assay [9] and in assay [10] were 0.88 µM, 9.23 µM and 5.35 µM, respectively.

Take `O=C1CC2OCC(O)C(O1)C2O` (stereo unspecified): the IC50 was 8.12 µM in assay [2]; 3.34 µM in assay [3]; 1.65 µM in assay [4]; 1.15 µM in assay [5]; more than 100 µM in assay [6]; 31.5 µM in assay [7]. Moreover, the results for the IC50 in [8], in [9] and in assay [10] were 2.92 µM, 1.64 µM and 1.17 µM, respectively.

Turning to `CC(=O)O[C@@H]1C=CC(=O)O[C@@H]1[C@@H](COC(=O)c1ccc([N+](=O)[O-])cc1)OC(C)=O`, the IC50 in assay [2] was 18.5 µM; in [3], 5.32 µM; in [4] it was 7.45 µM; in assay [5], 8.64 µM; in [6] it was more than 100 µM; in assay [7] it was 4.12 µM. The values for the half-maximal inhibitory concentration (IC50) in [8], in assay [9] and in assay [10] were 7.64 µM, 1.11 µM and 4.65 µM, respectively.
